According to patent US20100105655A1, “NOVEL COMPOUNDS 515” (ASTRAZENECA AB, priority 2008, published 2010):

test system: not given; assay: not given; conditions: not given

melting point	SMILES
~ 171.3 °C	COc1cc(N2CCN(CCO)CC2)ccc1Nc1ncc(F)c(-c2cnc3ccccn23)n1 [Example 81, 2-[4-[4-[(5-fluoro-4-imidazo[1,2-a]pyridin-3-yl-pyrimidin-2-yl)amino]-3-methoxy-phenyl]piperazin-1-yl]ethanol]

biological target: T1, IGFR kinase (Homo sapiens, UniProt P08069); assay: Enzyme assay (c), IGFR kinase, Caliper LabChip; format: biochemical; conditions: not given
T1 construct: purchased Millipore
T1 sequence (P08069 31-1367): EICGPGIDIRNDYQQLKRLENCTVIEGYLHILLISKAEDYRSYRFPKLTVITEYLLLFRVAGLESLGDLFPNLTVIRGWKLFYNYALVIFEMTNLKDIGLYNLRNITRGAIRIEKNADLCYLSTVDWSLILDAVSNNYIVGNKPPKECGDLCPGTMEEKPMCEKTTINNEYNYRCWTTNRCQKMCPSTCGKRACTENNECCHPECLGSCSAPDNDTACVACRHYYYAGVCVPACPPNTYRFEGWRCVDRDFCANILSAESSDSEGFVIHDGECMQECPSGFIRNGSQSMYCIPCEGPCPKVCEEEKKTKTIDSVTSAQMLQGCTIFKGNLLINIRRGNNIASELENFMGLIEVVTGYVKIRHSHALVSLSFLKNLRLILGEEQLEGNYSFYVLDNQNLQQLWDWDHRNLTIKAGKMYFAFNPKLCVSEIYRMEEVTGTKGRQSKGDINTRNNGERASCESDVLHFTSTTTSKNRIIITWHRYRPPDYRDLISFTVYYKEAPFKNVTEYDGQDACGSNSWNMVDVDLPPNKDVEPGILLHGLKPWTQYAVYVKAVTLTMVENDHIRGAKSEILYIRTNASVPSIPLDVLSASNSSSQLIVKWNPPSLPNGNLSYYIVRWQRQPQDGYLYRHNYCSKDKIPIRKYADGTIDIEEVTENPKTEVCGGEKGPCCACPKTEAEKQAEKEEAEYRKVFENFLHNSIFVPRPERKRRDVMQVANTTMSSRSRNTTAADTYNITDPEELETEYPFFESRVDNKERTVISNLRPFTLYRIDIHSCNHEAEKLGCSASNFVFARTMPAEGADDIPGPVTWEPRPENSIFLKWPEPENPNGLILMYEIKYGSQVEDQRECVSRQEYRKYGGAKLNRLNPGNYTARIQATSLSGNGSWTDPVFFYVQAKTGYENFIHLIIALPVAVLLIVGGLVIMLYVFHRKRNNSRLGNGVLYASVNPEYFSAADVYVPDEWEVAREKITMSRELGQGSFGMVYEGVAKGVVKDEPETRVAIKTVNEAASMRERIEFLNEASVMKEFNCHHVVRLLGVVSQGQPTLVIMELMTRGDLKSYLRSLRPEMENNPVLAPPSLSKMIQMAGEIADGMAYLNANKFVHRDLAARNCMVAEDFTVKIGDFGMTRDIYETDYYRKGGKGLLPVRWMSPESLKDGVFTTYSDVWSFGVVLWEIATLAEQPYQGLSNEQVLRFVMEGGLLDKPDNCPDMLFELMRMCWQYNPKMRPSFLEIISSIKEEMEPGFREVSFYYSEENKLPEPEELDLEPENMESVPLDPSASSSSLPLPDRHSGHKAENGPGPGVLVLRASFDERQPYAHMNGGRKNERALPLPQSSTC

IC50 [nM]	SMILES
19	COc1cc(N2CC3CN(CCCO)CC(C2)O3)ccc1Nc1ncc(Cl)c(-c2cnc3c(F)cccn23)n1 [Example 204, 3-[7-[4-[[5-chloro-4-(8-fluoroimidazo[1,2-a]pyridin-3-yl)pyrimidin-2-yl]amino]-3-methoxy-phenyl]-9-oxa-3,7-diazabicyclo[3.3.1]nonan-3-yl]propan-1-ol]

same assay, conditions: 30 nM IGFR kinase, 6 uM ATP, 3 uM peptide mix; read-out: IGFR IC50

SMILES	IC50 [nM]
COc1cc(N2CCN(CCO)CC2)ccc1Nc1ncc(F)c(-c2cnc3ccccn23)n1 [Example 81, 2-[4-[4-[(5-fluoro-4-imidazo[1,2-a]pyridin-3-yl-pyrimidin-2-yl)amino]-3-methoxy-phenyl]piperazin-1-yl]ethanol]	30
COc1cc(CN2CC[C@H](O)C2)ccc1Nc1ncc(Cl)c(-c2cnc3ccccn23)n1 [Example 20, (3S)-1-[[4-[(5-chloro-4-imidazo[1,2-a]pyridin-3-yl-pyrimidin-2-yl)amino]-3-methoxy-phenyl]methyl]pyrrolidin-3-ol]	19
COc1cc(OC2CN(C(=O)C3(O)CC3)C2)ccc1Nc1ncc(Cl)c(-c2cnc3ccccn23)n1 [Example 27.5, [3-[4-[(5-chloro-4-imidazo[1,2-a]pyridin-3-yl-pyrimidin-2-yl)amino]-3-methoxy-phenoxy]azetidin-1-yl]-(1-hydroxycyclopropyl)methanone]	23
COc1cc(N2CCNCC2)ccc1Nc1ncc(F)c(-c2cnc3ccccn23)n1 [Example 73, 5-fluoro-4-imidazo[1,2-a]pyridin-3-yl-N-(2-methoxy-4-piperazin-1-yl-phenyl)pyrimidin-2-amine]	71
COc1cc(N2CCN(C[C@@H](C)O)CC2)ccc1Nc1ncc(Cl)c(-c2cnc3ccccn23)n1 [Example 51, (2R)-1-[4-[4-[(5-chloro-4-imidazo[1,2-a]pyridin-3-yl-pyrimidin-2-yl)amino]-3-methoxy-phenyl]piperazin-1-yl]propan-2-ol]	8
COc1cc(CN2CCCN(C)CC2)ccc1Nc1ncc(Cl)c(-c2cnc3ccccn23)n1 [Example 21.11, 5-chloro-4-imidazo[1,2-a]pyridin-3-yl-N-[2-methoxy-4-[(4-methyl-1,4-diazepan-1-yl)methyl]phenyl]pyrimidin-2-amine]	23
COc1cc(N2C[C@@H](C)N(C(C)=O)C[C@@H]2C)ccc1Nc1ncc(Cl)c(-c2cnc3ccccn23)n1 [Example 3.35, 1-[(2R,5S)-4-[4-[(5-chloro-4-imidazo[1,2-a]pyridin-3-yl-pyrimidin-2-yl)amino]-3-methoxy-phenyl]-2,5-dimethyl-piperazin-1-yl]ethanone]	10
COc1cc(N2CCN(C(=O)N3CCOCC3)CC2)ccc1Nc1ncc(Cl)c(-c2cnc3ccccn23)n1 [Example 46, [4-[4-[(5-chloro-4-imidazo[1,2-a]pyridin-3-yl-pyrimidin-2-yl)amino]-3-methoxy-phenyl]piperazin-1-yl]-morpholino-methanone]	13
CC(=O)N1CCN(c2cccc(Nc3ncc(Cl)c(-c4cnc5ccccn45)n3)c2C)CC1 [Example 3.37, 1-[4-[3-[(5-chloro-4-imidazo[1,2-a]pyridin-3-yl-pyrimidin-2-yl)amino]-2-methyl-phenyl]piperazin-1-yl]ethanone]	12
COc1cc(C2CCN(C(=O)[C@@H](C)O)CC2)ccc1Nc1ncc(Cl)c(-c2cnc3ccccn23)n1 [Example 28.2, (2R)-1-[4-[4-[(5-chloro-4-imidazo[1,2-a]pyridin-3-yl-pyrimidin-2-yl)amino]-3-methoxy-phenyl]-1-piperidyl]-2-hydroxy-propan-1-one]	6
COc1cc(CN2CCC(O)CC2)ccc1Nc1ncc(Cl)c(-c2cnc3ccccn23)n1 [Example 21.5, 1-[[4-[(5-chloro-4-imidazo[1,2-a]pyridin-3-yl-pyrimidin-2-yl)amino]-3-methoxy-phenyl]methyl]piperidin-4-ol]	28
COc1cc(C2CCN(C(=O)[C@@H](C)OC)CC2)ccc1Nc1ncc(Cl)c(-c2cnc3ccccn23)n1 [Example 28.1, (2R)-1-[4-[4-[(5-chloro-4-imidazo[1,2-a]pyridin-3-yl-pyrimidin-2-yl)amino]-3-methoxy-phenyl]-1-piperidyl]-2-methoxy-propan-1-one]	5
COc1cc(OC[C@H]2CCCN2)ccc1Nc1ncc(OC)c(-c2cnc3ccccn23)n1 [Example 96, 4-imidazo[1,2-a]pyridin-3-yl-5-methoxy-N-[2-methoxy-4-[[(2R)-pyrrolidin-2-yl]methoxy]phenyl]pyrimidin-2-amine]	127

Continued, values first:

IC50 [nM]	SMILES
25	COc1cc(CC(CO)CO)ccc1Nc1ncc(Cl)c(-c2cnc3c(F)cccn23)n1 [Example 193, 2-[[4-[[5-chloro-4-(8-fluoroimidazo[1,2-a]pyridin-3-yl)pyrimidin-2-yl]amino]-3-methoxy-phenyl]methyl]propane-1,3-diol]
15	COc1cc(N2CCN(C(C)=O)CC2)ccc1Nc1ncc(C(F)(F)F)c(-c2cnc3ccccn23)n1 [Example 107, 1-[4-[4-[[4-imidazo[1,2-a]pyridin-3-yl-5-(trifluoromethyl)pyrimidin-2-yl]amino]-3-methoxy-phenyl]piperazin-1-yl]ethanone]
26	COc1cc(C2CCN(C(=O)CO)CC2)ccc1Nc1ncc(C)c(-c2cnc3c(F)cccn23)n1 [Example 198, 1-[4-[4-[[4-(8-fluoroimidazo[1,2-a]pyridin-3-yl)-5-methyl-pyrimidin-2-yl]amino]-3-methoxy-phenyl]-1-piperidyl]-2-hydroxy-ethanone]
4	COc1cc(N2CCN(C(C)(C)CO)CC2)ccc1Nc1ncc(Cl)c(-c2cnc3ccc(F)cn23)n1 [Example 259, 2-[4-[4-[[5-chloro-4-(6-fluoroimidazo[1,2-a]pyridin-3-yl)pyrimidin-2-yl]amino]-3-methoxy-phenyl]piperazin-1-yl]-2-methyl-propan-1-ol]
22	COc1cc2c(cc1Nc1ncc(F)c(-c3cnn4ccccc34)n1)N(C(=O)CN(C)C)CC2 [Example 176, 2-(dimethylamino)-1-[6-[(5-fluoro-4-pyrazolo[1,5-a]pyridin-3-yl-pyrimidin-2-yl)amino]-5-methoxy-indolin-1-yl]ethanone]
5	COc1cc(C2CCN(C(=O)CO)CC2)ccc1Nc1ncc(Cl)c(-c2cnc3ccc(F)cn23)n1 [Example 244, 1-[4-[4-[[5-chloro-4-(6-fluoroimidazo[1,2-a]pyridin-3-yl)pyrimidin-2-yl]amino]-3-methoxy-phenyl]-1-piperidyl]-2-hydroxy-ethanone]
8	CCOc1cc(N2CCN(C)CC2)ccc1Nc1ncc(Br)c(-c2cnc3ccccn23)n1 [Example 122, 5-bromo-N-[2-ethoxy-4-(4-methylpiperazin-1-yl)phenyl]-4-imidazo[1,2-a]pyridin-3-yl-pyrimidin-2-amine]
24	COc1cc(N2CCN(C(C)(C)CO)CC2)ccc1Nc1ncc(F)c(-c2cnc3ccccn23)n1 [Example 228, 2-[4-[4-[(5-fluoro-4-imidazo[1,2-a]pyridin-3-yl-pyrimidin-2-yl)amino]-3-methoxy-phenyl]piperazin-1-yl]-2-methyl-propan-1-ol]
8	COc1cc(N2CCN(CCO)CC2)c(C)cc1Nc1ncc(Cl)c(-c2cnc3ccccn23)n1 [Example 279, 2-[4-[4-[(5-chloro-4-imidazo[1,2-a]pyridin-3-yl-pyrimidin-2-yl)amino]-5-methoxy-2-methyl-phenyl]piperazin-1-yl]ethanol]
21	COc1cc(C(CO)CO)ccc1Nc1ncc(Cl)c(-c2cnc3c(F)cccn23)n1 [Example 181, 2-[4-[[5-chloro-4-(8-fluoroimidazo[1,2-a]pyridin-3-yl)pyrimidin-2-yl]amino]-3-methoxy-phenyl]propane-1,3-diol]
22	COc1cc(N2CCNCC2)ccc1Nc1ncc(C)c(-c2cnc3ccccn23)n1 [Example 98, 4-imidazo[1,2-a]pyridin-3-yl-N-(2-methoxy-4-piperazin-1-yl-phenyl)-5-methyl-pyrimidin-2-amine]
43	COc1cc(N2CCN(C(C)=O)CC2)ccc1Nc1ncc(Cl)c(-c2cnc3cc(CN4CCOCC4)ccn23)n1 [Example 187, 1-[4-[4-[[5-chloro-4-[7-(morpholinomethyl)imidazo[1,2-a]pyridin-3-yl]pyrimidin-2-yl]amino]-3-methoxy-phenyl]piperazin-1-yl]ethanone]
3	COc1cc(N2CCNCC2)ccc1Nc1ncc(Cl)c(-c2cnn3ccccc23)n1 [Example 129, 5-chloro-N-(2-methoxy-4-piperazin-1-yl-phenyl)-4-pyrazolo[1,5-a]pyridin-3-yl-pyrimidin-2-amine]
